Data from PubChem BioAssay AID1963861 (Molecular Pharmacology Branch, DTP, NCI, 2024).

System: 885724-159-R-J1-PDC KRAS PDC multicell spheroid viability
Assay: Anticancer human tumor 885724-159-R-J1-PDC patient-derived pancreatic adenocarcinoma cell line growth inhibition [KRAS2]
Settings: for viability, T/C: stronger effect = lower value
Excerpt: Multicellular complex tumor spheroid response to RAS pathway inhibitors in combination with a targeted agents in patient-derived cell lines with oncogenic KRAS variants from multiple cancer types
A high-throughput screen of multi-cell type tumor spheroids was designed to identify active combinations of targeted small molecules and KRAS pathway inhibitors. Complex spheroids include a stromal component modeled by human endothelial cells (HUVEC) and fibroblasts modeled by human mesenchymal stem cells (MSCs). The concentration ranges selected for each drug and investigational agent were based upon clinically achievable concentrations if the clinical Cmax of the agent was known.
Compounds. The drugs and investigational agents: BI-3406 (NSC825286), BAY-293 (NSC824723), batoprotafib (TNO155; NSC825523), sotorasib (AMG 510; NSC818433), MRTX1257 (NSC819558), elimusertib (BAY 1895344; NSC800525), molibresib (GSK525762; NSC774829), temuterkib (LY3214996; NSC803410), venetoclax (NSC766270), alisertib (NSC759677), olaparib (NSC753686), talazoparib (NSC767125), erdafitinib (NSC781556), ipatasertib (NSC767898), cabozantinib (NSC761068), nintedanib (NSC756659), abemaciclib (NSC768073), docetaxel (NSC628503), trametinib (NSC758246), and sapanisertib (NSC764658) were obtained from the National Cancer Institute (NCI) Developmental Therapeutics Program Chemical Repository. The FDA-approved anticancer drug set is available from the Developmental Therapeutics Program. […] The stock solutions were prepared in dimethyl sulfoxide (DMSO, Sigma-Aldrich, St. Louis, MO, cat. D2650) at 800-fold the tested concentration and stored at -70 degrees C prior to their use. All drugs and investigational agents were tested over a range starting from a high concentration at or near the clinical Cmax and decreasing in half-log increments. If the clinical Cmax for an agent had not been determined, the highest concentration tested was 10 microM.
Cell Culture. All cells were maintained in an incubator at 37 degrees C and 5% CO2 with 95% humidity. The PDC lines were cultured according to standard operating procedures established by the NCI PDMR (https://pdmr.cancer.gov/sops/default.htm). Briefly, all PDCs were thawed and cultured in Matrigel-coated flasks prepared with a working solution of 1X Ham's F-12 nutrient mix, without supplementation (Invitrogen, Waltham, MA, cat. 11765054), 100 U/mL penicillin-streptomycin (Invitrogen, cat. 15140122), and 2.5% Matrigel (Corning Inc., Corning, NY, cat. 354248) for the first three passages. All PDCs were cultured in complete DMEM/F-12 media containing advanced DMEM/F-12 (Invitrogen, cat. 12634028), 4.9% defined fetal bovine serum, heat inactivated (HyClone Laboratories Inc., Logan, UT, cat. SH30070.03HI), 389 ng/mL hydrocortisone (Sigma-Aldrich, cat. H4001), 9.7 ng/mL human EGF recombinant protein (Invitrogen, cat. PHG0313), 23.4 microg/mL adenine (Sigma-Aldrich, cat. A2786), 97.3 U/mL penicillin-streptomycin (Invitrogen, cat. 15140122), 1.9 mM L-glutamine (Invitrogen, cat. 25030081), and 9.7 microM Y-27632 dihydrochloride (Tocris Bioscience, Bristol, United Kingdom, cat. 1254). The PDCs were cultured in complete DMEM/F12 media without 9.7 microM Y-27632 dihydrochloride for at least two passages prior to the screen. The established cell line HOP-62 was cultured in RPMI 1640 medium, HEPES (Invitrogen, cat. 22400105) with 10% defined fetal bovine serum (HyClone Laboratories Inc., cat. SH30070.03) and 2 mM L-glutamine (Invitrogen, cat. 25030081). The pooled donor HUVEC were cultured in endothelial cell growth medium 2 (PromoCell, Heidelberg, Germany, cat. C-22011) and the hMSC were cultured in mesenchymal stem cell growth medium 2 (PromoCell, cat. C-28009). For all experiments, HUVEC and hMSC were used at passages </=5, while the malignant cell lines were used at passages </=15. […]

[1] = curve of first compound, second compound 0.1 µM
[2] = curve of first compound, second compound 0.316 µM
[3] = curve of first compound, second compound 1 µM
[4] = curve of first compound, second compound 3.16 µM
[5] = second compound 0.1 µM, first compound 0.0316 µM
[6] = second compound 0.316 µM, first compound 0.0316 µM
[7] = second compound 1 µM, first compound 0.0316 µM
[8] = second compound 3.16 µM, first compound 0.0316 µM
[9] = curve of first compound, second compound 10 µM
[10] = second compound 0.1 µM, first compound 0.0001 µM
[11] = second compound 0.1 µM, first compound 0.000316 µM
[12] = second compound 0.1 µM, first compound 0.001 µM
[13] = second compound 0.1 µM, first compound 0.00316 µM
[14] = second compound 0.1 µM, first compound 0.01 µM
[15] = second compound 0.316 µM, first compound 0.0001 µM
[16] = second compound 0.316 µM, first compound 0.000316 µM
[17] = second compound 0.316 µM, first compound 0.001 µM
[18] = second compound 0.316 µM, first compound 0.00316 µM
[19] = second compound 0.316 µM, first compound 0.01 µM
[20] = second compound 1 µM, first compound 0.0001 µM
[21] = second compound 1 µM, first compound 0.000316 µM
[22] = second compound 1 µM, first compound 0.001 µM
[23] = second compound 1 µM, first compound 0.00316 µM
[24] = second compound 1 µM, first compound 0.01 µM
[25] = second compound 3.16 µM, first compound 0.0001 µM
[26] = second compound 3.16 µM, first compound 0.000316 µM
[27] = second compound 3.16 µM, first compound 0.001 µM
[28] = second compound 3.16 µM, first compound 0.00316 µM
[29] = second compound 3.16 µM, first compound 0.01 µM
[30] = second compound 10 µM, first compound 0.0001 µM
[31] = second compound 10 µM, first compound 0.000316 µM
[32] = second compound 10 µM, first compound 0.001 µM
[33] = second compound 10 µM, first compound 0.00316 µM
[34] = second compound 10 µM, first compound 0.01 µM
[35] = second compound 10 µM, first compound 0.0316 µM
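Further: spheroids exposed to agents for 7 days before readout.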

## O=C(c1cc(Cc2n[nH]c(=O)c3ccccc23)ccc1F)N1CCN(C(=O)C2CC2)CC1 + C=CC(=O)N1CCN(c2nc(OCC3CCCN3C)nc3c2CCN(c2cccc4cccc(C)c24)C3)CC1CC#N
Curve of first compound, second compound 0.0316 µM
  IC50: > 10000 nM
[1]
  IC50: > 10000 nM
[2]
  IC50: > 10000 nM
[3]
  IC50: > 10000 nM
[4]
  IC50: 4940 nM
Second compound 0.0316 µM, first compound 0.0316 µM
  viability, T/C: 127%
Second compound 0.0316 µM, first compound 0.1 µM
  viability, T/C: 120%
Second compound 0.0316 µM, first compound 0.316 µM
  viability, T/C: 119%
Second compound 0.0316 µM, first compound 1 µM
  viability, T/C: 119%
Second compound 0.0316 µM, first compound 3.16 µM
  viability, T/C: 112%
Second compound 0.0316 µM, first compound 10 µM
  viability, T/C: 96.7%
[5]
  viability, T/C: 122%
Second compound 0.1 µM, first compound 0.1 µM
  viability, T/C: 118%
Second compound 0.1 µM, first compound 0.316 µM
  viability, T/C: 117%
Second compound 0.1 µM, first compound 1 µM
  viability, T/C: 109%
Second compound 0.1 µM, first compound 3.16 µM
  viability, T/C: 104%
Second compound 0.1 µM, first compound 10 µM
  viability, T/C: 93%
[6]
  viability, T/C: 111%
Second compound 0.316 µM, first compound 0.1 µM
  viability, T/C: 115%
Second compound 0.316 µM, first compound 0.316 µM
  viability, T/C: 113%
Second compound 0.316 µM, first compound 1 µM
  viability, T/C: 108%
Second compound 0.316 µM, first compound 3.16 µM
  viability, T/C: 99%
Second compound 0.316 µM, first compound 10 µM
  viability, T/C: 101%
[7]
  viability, T/C: 112%
Second compound 1 µM, first compound 0.1 µM
  viability, T/C: 116%
Second compound 1 µM, first compound 0.316 µM
  viability, T/C: 106%
Second compound 1 µM, first compound 1 µM
  viability, T/C: 108%
Second compound 1 µM, first compound 3.16 µM
  viability, T/C: 108%
Second compound 1 µM, first compound 10 µM
  viability, T/C: 89%
[8]
  viability, T/C: 66.9%
Second compound 3.16 µM, first compound 0.1 µM
  viability, T/C: 65%
Second compound 3.16 µM, first compound 0.316 µM
  viability, T/C: 60.5%
Second compound 3.16 µM, first compound 1 µM
  viability, T/C: 58%
Second compound 3.16 µM, first compound 3.16 µM
  viability, T/C: 58.3%
Second compound 3.16 µM, first compound 10 µM
  viability, T/C: 40.8%

## COc1cc(OC)cc(N(CCNC(C)C)c2ccc3ncc(-c4cnn(C)c4)nc3c2)c1
Compound 0.0316 µM
  viability, T/C: 103% [middle of 5 runs]
Compound 0.1 µM
  viability, T/C: 104% [middle of 5 runs]
Compound 0.316 µM
  viability, T/C: 109% [middle of 5 runs]
Compound 1 µM
  viability, T/C: 121% [middle of 5 runs]
Compound 3.16 µM
  viability, T/C: 142% [middle of 5 runs]
Compound 10 µM
  viability, T/C: 16.8% [middle of 5 runs]
Curve of compound
  IC50: 6.96 µM [middle of 5 runs]

## CC(=O)Nc1cccc(-n2c(=O)n(C3CC3)c(=O)c3c(Nc4ccc(I)cc4F)n(C)c(=O)c(C)c32)c1 + CNCc1ccccc1-c1csc(C(C)Nc2nc(C)nc3cc(OC)c(OC)cc23)c1
[1]
  IC50: 0.893 nM
[2]
  IC50: 0.824 nM
[3]
  IC50: 0.519 nM
[4]
  IC50: < 0.1 nM
[9]
  IC50: < 0.1 nM
[10]
  viability, T/C: 90.3%
[11]
  viability, T/C: 71.2%
[12]
  viability, T/C: 43.9%
[13]
  viability, T/C: 34.7%
[14]
  viability, T/C: 24.7%
[5]
  viability, T/C: 16.2%
[15]
  viability, T/C: 90.4%
[16]
  viability, T/C: 70.2%
[17]
  viability, T/C: 43.9%
[18]
  viability, T/C: 30.3%
[19]
  viability, T/C: 20.5%
[6]
  viability, T/C: 12.9%
[20]
  viability, T/C: 90.8%
[21]
  viability, T/C: 63.7%
[22]
  viability, T/C: 30.5%
[23]
  viability, T/C: 20.6%
[24]
  viability, T/C: 6.76%
[7]
  viability, T/C: 1.59%
[25]
  viability, T/C: 1.26%
[26]
  viability, T/C: 0.83%
[27]
  viability, T/C: 0.53%
[28]
  viability, T/C: 0.68%
[29]
  viability, T/C: 0.79%
[8]
  viability, T/C: 1.69%
[30]
  viability, T/C: 0.21%
[31]
  viability, T/C: 0.24%
[32]
  viability, T/C: 0.25%
[33]
  viability, T/C: 0.37%
[34]
  viability, T/C: 0.34%
[35]
  viability, T/C: 0.69%

## CC(=O)Nc1cccc(-n2c(=O)n(C3CC3)c(=O)c3c(Nc4ccc(I)cc4F)n(C)c(=O)c(C)c32)c1 + COc1cc2nc(C)nc(NC(C)c3cc(N)cc(C(F)(F)F)c3)c2cc1OC1CCOC1
[1]
  IC50: 0.985 nM
[2]
  IC50: 0.909 nM
[3]
  IC50: 0.845 nM
[4]
  IC50: 0.706 nM
[9]
  IC50: < 0.1 nM
[10]
  viability, T/C: 91%
[11]
  viability, T/C: 73%
[12]
  viability, T/C: 48.1%
[13]
  viability, T/C: 32.7%
[14]
  viability, T/C: 26.2%
[5]
  viability, T/C: 17%
[15]
  viability, T/C: 87.2%
[16]
  viability, T/C: 68.9%
[17]
  viability, T/C: 46.4%
[18]
  viability, T/C: 34.3%
[19]
  viability, T/C: 24.9%
[6]
  viability, T/C: 17.3%
[20]
  viability, T/C: 89.8%
[21]
  viability, T/C: 68.4%
[22]
  viability, T/C: 46.1%
[23]
  viability, T/C: 31.6%
[24]
  viability, T/C: 24.6%
[7]
  viability, T/C: 17.1%
[25]
  viability, T/C: 74.9%
[26]
  viability, T/C: 62.8%
[27]
  viability, T/C: 44.4%
[28]
  viability, T/C: 27.6%
[29]
  viability, T/C: 19.1%
[8]
  viability, T/C: 10.7%
[30]
  viability, T/C: 34.8%
[31]
  viability, T/C: 18.5%
[32]
  viability, T/C: 3.24%
[33]
  viability, T/C: 0.51%
[34]
  viability, T/C: 0.67%
[35]
  viability, T/C: 0.32%
